For this test, the target named is JAK1 (Homo sapiens (Human), UniProt P23458). The test is described as follows: Analysis of JAK1 activity inhibition ability (ADP-Glo Kinase Assay). The settings on record: JAK1 enzyme, ADP-Glo luminescence, ATP 250 uM, IRS-itide substrate, 30° C. 40 minutes; read-out: IC50. The test is classed as biochemical. On the procedure:
Test Example 1: Analysis of JAK1 Activity Inhibition Ability of Compound of Formula 1 (ADP-Glo™ Kinase Assay)
A JAK inhibition ability of a compound according to the present invention was identified as follows.
A control material and a test material were prepared for each concentration, in such a way that they were diluted by means of DMSO. At the same time, ATP (250 uM) and JAK substrate (JAK1, IRS-itide 40 ng/mL) were prepared, in such a way that they were diluted by means of kinase buffer (40 mM Tris-HCl pH 7.5, 20 mM MgCl2, 0.5 mg/mL BSA, 50 uM DTT).
A test drug for each concentration, substrate, ATP and JAK enzyme were mixed in an eppendorf tube, and reacted in a 30° C. incubator for 40 minutes.
ADP-Glo™ reagent contained in ADP-Glo™ Kinase Enzyme System (Promega, USA, V9571) was added into each eppendorf tube, and reacted in a 30° C. incubator for 40 minutes. A kinase detection reagent contained in ADP-Go™ Kinase Enzyme System was inserted into the eppendorf tube, then an integration time was set to 1 second by using Wallac Victor 2™, then luminescence was measured, and then JAKs phosphorylation inhibition ability of the test material was analyzed. The concentration of the compound, which causes 50% of the JAK enzyme activity inhibition in comparison With the control group, was determined as IC50 (nM) of an inhibitor, wherein the results thereof are shown in a following table 1.
For orientation: ADP-Glo first removes unused ATP, then detects ADP through luciferase.

The structures appear in SMILES notation. Bounds are passed on as bounds.

Sequence of JAK1 (P23458 whole entry): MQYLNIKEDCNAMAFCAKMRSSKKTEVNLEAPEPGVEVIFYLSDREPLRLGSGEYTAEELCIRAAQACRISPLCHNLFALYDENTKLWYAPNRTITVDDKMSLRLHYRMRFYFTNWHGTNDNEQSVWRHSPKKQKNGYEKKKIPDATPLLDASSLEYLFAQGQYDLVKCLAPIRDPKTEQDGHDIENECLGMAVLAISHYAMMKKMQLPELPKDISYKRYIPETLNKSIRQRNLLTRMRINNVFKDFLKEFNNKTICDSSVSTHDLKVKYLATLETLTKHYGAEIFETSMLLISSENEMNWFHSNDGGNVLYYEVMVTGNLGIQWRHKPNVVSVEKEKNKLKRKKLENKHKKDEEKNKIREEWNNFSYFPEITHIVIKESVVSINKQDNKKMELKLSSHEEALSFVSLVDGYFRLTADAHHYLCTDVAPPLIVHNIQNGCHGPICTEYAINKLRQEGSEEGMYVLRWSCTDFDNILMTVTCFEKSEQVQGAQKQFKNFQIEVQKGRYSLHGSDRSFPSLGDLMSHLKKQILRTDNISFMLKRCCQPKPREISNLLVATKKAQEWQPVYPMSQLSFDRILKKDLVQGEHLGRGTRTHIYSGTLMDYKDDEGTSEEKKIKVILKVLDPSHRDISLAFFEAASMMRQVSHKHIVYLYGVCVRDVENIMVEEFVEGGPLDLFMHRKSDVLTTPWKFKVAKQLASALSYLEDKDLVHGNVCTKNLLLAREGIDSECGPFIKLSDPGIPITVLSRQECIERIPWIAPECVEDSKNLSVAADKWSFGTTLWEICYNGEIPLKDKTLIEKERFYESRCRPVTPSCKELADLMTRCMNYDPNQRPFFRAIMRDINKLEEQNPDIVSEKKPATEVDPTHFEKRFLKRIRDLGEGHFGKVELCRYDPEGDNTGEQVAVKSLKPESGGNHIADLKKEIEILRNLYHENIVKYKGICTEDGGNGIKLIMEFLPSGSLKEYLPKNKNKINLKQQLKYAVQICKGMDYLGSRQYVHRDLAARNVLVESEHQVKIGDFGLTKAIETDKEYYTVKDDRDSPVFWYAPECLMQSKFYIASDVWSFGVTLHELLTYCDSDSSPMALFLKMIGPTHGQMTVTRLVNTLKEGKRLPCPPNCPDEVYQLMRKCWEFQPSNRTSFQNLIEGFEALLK

Consider `O=C(Nc1cc(-c2ccc(NS(=O)(=O)C3CCC3)cc2)c2cc[nH]c2n1)C1CC1` [Example 58, N-(4-(4-(cyclobutanesulfonamido)phenyl)-1H-pyrrolo[2,3-b]pyridin-6-yl)cyclopropanecarboxamide], for which the IC50 (usually the concentration needed to halve the response being measured) was under 20 nM.
`CCS(=O)(=O)Nc1ccc(-c2cc(NC(=O)C3CC3)nc3[nH]ccc23)cc1C#N` [Example 59, N-(4-(3-cyano-4-(ethylsulfonamido)phenyl)-1H-pyrrolo[2,3-b]pyridin-6-yl)cyclopropanecarboxamide]: the IC50 was over 200 nM.
For `CCS(=O)(=O)Nc1ccc(-c2cc(NC(=O)C3CC3)nc3c2ccn3C)cc1F` [Example 60, N-(4-(4-(ethylsulfonamido)-3-fluorophenyl)-1-methyl-1H-pyrrolo[2,3-b]pyridin-6-yl)cyclopropanecarboxamide], the IC50 was over 200 nM.
With `CCCn1ccc2c(-c3ccc(NS(=O)(=O)CC)c(F)c3)cc(NC(=O)C3CC3)nc21` [Example 61, N-(4-(4-(ethylsulfonamido)-3-fluorophenyl)-1-propyl-1H-pyrrolo[2,3-b]pyridin-6-yl)cyclopropanecarboxamide], the IC50 was over 200 nM.
The result for `CCS(=O)(=O)Nc1ccc(-c2cc(NC(=O)C3CC3)nc3c2ccn3CC#N)cc1F` [Example 62, N-(1-(cyanomethyl)-4-(4-(ethylsulfonamido)-3-fluorophenyl)-1H-pyrrolo[2,3-b]pyridin-6-yl)cyclopropanecarboxamide] reads over 200 nM; that for `CCCS(=O)(=O)Nc1ccc(-c2cc(NC(=O)C3CC3)nc3[nH]ccc23)cc1Cl` [Example 63, N-(4-(3-chloro-4-(propylsulfonamido)phenyl)-1H-pyrrolo[2,3-b]pyridin-6-yl)cyclopropanecarboxamide], 20 to 200 nM; that for `CCS(=O)(=O)Nc1ccc(-c2cc(NC(=O)C3CC3)nc3[nH]ccc23)cc1C` [Example 64, N-(4-(4-(ethylsulfonamido)-3-methylphenyl)-1H-pyrrolo[2,3-b]pyridin-6-yl)cyclopropanecarboxamide], under 20 nM.
As for `CCCS(=O)(=O)Nc1ccc(-c2cc(NC(=O)C3CC3)nc3[nH]ccc23)cc1C` [Example 65, N-(4-(3-methyl-4-(propylsulfonamido)phenyl)-1H-pyrrolo[2,3-b]pyridin-6-yl)cyclopropanecarboxamide], the IC50 is under 20 nM.
Turning to `CCCS(=O)(=O)Nc1ccc(-c2cc(NC(=O)C3CC3)nc3[nH]ccc23)cc1F` [Example 66, N-(4-(3-fluoro-4-(propylsulfonamido)phenyl)-1H-pyrrolo[2,3-b]pyridin-6-yl)cyclopropanecarboxamide], the IC50 was under 20 nM.
Consider `CCCCS(=O)(=O)Nc1ccc(-c2cc(NC(=O)C3CC3)nc3[nH]ccc23)cc1F` [Example 67, N-(4-(4-(butylsulfonamido)-3-fluorophenyl)-1H-pyrrolo[2,3-b]pyridin-6-yl)cyclopropanecarboxamide], for which the half-maximal inhibitory concentration (IC50) was under 20 nM.
On to `O=C(Nc1cc(-c2ccc(NS(=O)(=O)C3CCCCC3)c(F)c2)c2cc[nH]c2n1)C1CC1` [Example 68, N-(4-(4-(cyclohexanesulfonamido)-3-fluorophenyl)-1H-pyrrolo[2,3-b]pyridin-6-yl)cyclopropanecarboxamide], for which the IC50 is under 20 nM.
As for `O=C(Nc1cc(-c2ccc(NS(=O)(=O)C3CC3)c(F)c2)c2cc[nH]c2n1)C1CC1` [Example 69, N-(4-(4-(cyclopropanesulfonamido)-3-fluorophenyl)-1H-pyrrolo[2,3-b]pyridin-6-yl)cyclopropanecarboxamide], the IC50 is under 20 nM.
Consider `O=C(Nc1cc(-c2ccc(NS(=O)(=O)CC3CCCCC3)c(F)c2)c2cc[nH]c2n1)C1CC1` [Example 70, N-(4-(4-((cyclohexylmethyl)sulfonamido)-3-fluorophenyl)-1H-pyrrolo[2,3-b]pyridin-6-yl)cyclopropanecarboxamide], for which the IC50 lay in the range of 20 to 200 nM.
As to `C=CCS(=O)(=O)Nc1ccc(-c2cc(NC(=O)C3CC3)nc3[nH]ccc23)cc1F` [Example 71, N-(4-(4-(allylsulfonamido)-3-fluorophenyl)-1H-pyrrolo[2,3-b]pyridin-6-yl)cyclopropanecarboxamide], the IC50 was under 20 nM.
Take `O=C(Nc1cc(-c2ccc(NS(=O)(=O)CC3CCOC3)c(F)c2)c2cc[nH]c2n1)C1CC1` (stereo not drawn) [Example 72, N-(4-(3-fluoro-4-(((tetrahydrofuran-3-yl)methyl)sulfonamido)phenyl)-1H-pyrrolo[2,3-b]pyridin-6-yl)cyclopropanecarboxamide]: the IC50 is under 20 nM.
For `O=C(Nc1cc(-c2ccc(NS(=O)(=O)CC3CCOCC3)c(F)c2)c2cc[nH]c2n1)C1CC1` [Example 73, N-(4-(3-fluoro-4-(((tetrahydro-2H-pyran-4-yl)methyl)sulfonamido)phenyl)-1H-pyrrolo[2,3-b]pyridin-6-yl)cyclopropanecarboxamide], the IC50 is under 20 nM.
With `CCS(=O)(=O)Nc1ccc(-c2cc(NC(=O)C3CC3)nc3[nH]c(C)cc23)cc1` [Example 74, N-(4-(4-(ethylsulfonamido)phenyl)-2-methyl-1H-pyrrolo[2,3-b]pyridin-6-yl)cyclopropanecarboxamide], the IC50 was over 200 nM.
For the molecule `CC(C)CS(=O)(=O)Nc1ccc(-c2cc(NC(=O)C3CC3)nc3[nH]ccc23)cc1F` [Example 75, N-(4-(3-fluoro-4-((2-methylpropyl)sulfonamido)phenyl)-1H-pyrrolo[2,3-b]pyridin-6-yl)cyclopropanecarboxamide], the IC50 is under 20 nM.
`O=C(Nc1cc(-c2ccc(NS(=O)(=O)CCCF)c(F)c2)c2cc[nH]c2n1)C1CC1` [Example 76, N-(4-(3-fluoro-4-((3-fluoropropyl)sulfonamido)phenyl)-1H-pyrrolo[2,3-b]pyridin-6-yl)cyclopropanecarboxamide]: the IC50 is under 20 nM.
The result for `N#CCCCS(=O)(=O)Nc1ccc(-c2cc(NC(=O)C3CC3)nc3[nH]ccc23)cc1F` [Example 77, N-(4-(4-((3-cyanopropyl)sulfonamido)-3-fluorophenyl)-1H-pyrrolo[2,3-b]pyridin-6-yl)cyclopropanecarboxamide] reads under 20 nM; that for `O=C(Nc1cc(-c2ccc(NS(=O)(=O)C3CCC3)c(F)c2)c2cc[nH]c2n1)C1CC1` [Example 78, N-(4-(4-(cyclobutanesulfonamido)-3-fluorophenyl)-1H-pyrrolo[2,3-b]pyridin-6-yl)cyclopropanecarboxamide], under 20 nM.
On to `CC(C)(C)CS(=O)(=O)Nc1ccc(-c2cc(NC(=O)C3CC3)nc3[nH]ccc23)cc1F` [Example 79, N-(4-(4-((2,2-dimethylpropyl)sulfonamido)-3-fluorophenyl)-1H-pyrrolo[2,3-b]pyridin-6-yl)cyclopropanecarboxamide], for which the IC50 was under 20 nM.
Consider `O=C(Nc1cc(-c2ccc(NS(=O)(=O)CC3CC3)c(F)c2)c2cc[nH]c2n1)C1CC1` [Example 80, N-(4-(4-((cyclopropylmethyl)sulfonamido)-3-fluorophenyl)-1H-pyrrolo[2,3-b]pyridin-6-yl)cyclopropanecarboxamide], for which the IC50 is under 20 nM.
Turning to `CCS(=O)(=O)Nc1c(F)cc(-c2cc(NC(=O)C3CC3)nc3[nH]ccc23)cc1F` [Example 81, N-(4-(4-(ethylsulfonamido)-3,5-difluorophenyl)-1H-pyrrolo[2,3-b]pyridin-6-yl)cyclopropanecarboxamide], the IC50 was 20 to 200 nM.
The result for `CCCS(=O)(=O)Nc1c(F)cc(-c2cc(NC(=O)C3CC3)nc3[nH]ccc23)cc1F` [Example 82, N-(4-(3,5-difluoro-4-(propylsulfonamido)phenyl)-1H-pyrrolo[2,3-b]pyridin-6-yl)cyclopropanecarboxamide] reads 20 to 200 nM.
Take `CCS(=O)(=O)Nc1cc(F)c(-c2cc(NC(=O)C3CC3)nc3[nH]ccc23)cc1F` [Example 83, N-(4-(4-(ethylsulfonamido)-2,5-difluorophenyl)-1H-pyrrolo[2,3-b]pyridin-6-yl)cyclopropanecarboxamide]: the IC50 is under 20 nM.
For the molecule `CCCS(=O)(=O)Nc1cc(F)c(-c2cc(NC(=O)C3CC3)nc3[nH]ccc23)cc1F` [Example 84, N-(4-(2,5-difluoro-4-(propylsulfonamido)phenyl)-1H-pyrrolo[2,3-b]pyridin-6-yl)cyclopropanecarboxamide], the IC50 was under 20 nM.
Take `N#CC1(CS(=O)(=O)Nc2ccc(-c3cc(NC(=O)C4CC4)nc4[nH]ccc34)cc2F)CC1` [Example 85, N-(4-(4-(((1-cyanocyclopropyl)methyl)sulfonamido)-3-fluorophenyl)-1H-pyrrolo[2,3-b]pyridin-6-yl)cyclopropanecarboxamide]: the IC50 was under 20 nM.
In the case of `N#CCC1(CS(=O)(=O)Nc2ccc(-c3cc(NC(=O)C4CC4)nc4[nH]ccc34)cc2F)CC1` [Example 86, N-(4-(4-(((1-(cyanomethyl)cyclopropyl)methyl)sulfonamido)-3-fluorophenyl)-1H-pyrrolo[2,3-b]pyridin-6-yl)cyclopropanecarboxamide], the IC50 is under 20 nM.
For `CC(C)(C#N)CCS(=O)(=O)Nc1ccc(-c2cc(NC(=O)C3CC3)nc3[nH]ccc23)cc1F` [Example 87, N-(4-(4-((3-cyano-3-methylbutyl)sulfonamido)-3-fluorophenyl)-1H-pyrrolo[2,3-b]pyridin-6-yl)cyclopropanecarboxamide], the IC50 is 20 to 200 nM.
